Format in all cases: functional
Test [1] relates to MDA-MB-231. Nature of the test: Induction of apoptosis in human MDA-MB-231 cells assessed as necrotic cells at 1 uM incubated for 24 hrs by annexin V-FITC and PI staining based flow cytometry analysis (reference value: 0.23 %).
For test [2], the system named is MDA-MB-231. The test is described as follows: Induction of apoptosis in human MDA-MB-231 cells assessed as early apoptotic cells at 2 uM incubated for 24 hrs by annexin V-FITC and PI staining based flow cytometry analysis (reference value: 2.69 %). (In flow cytometry, cells or beads pass a laser one at a time.)
In test [3] the test system is MDA-MB-231. Nature of the test: Induction of cell cycle arrest in human MDA-MB-231 cells assessed as increase in S phase accumulation incubated for 24 hrs by PI staining based flow cytometry analysis. The conditions noted are these: dose 1-4 µM.

Regarding `COc1ccc(NC2=CC(=O)c3cc(C(C)=O)oc3C2=O)cc1`, the Activity in test [1] is 0.41%; in test [2], 4.69%; in test [3] it was “Dose-dependent effect”.

The values are drawn from ChEMBL document CHEMBL4765360, “Design, synthesis and biological evaluation of novel potent STAT3 inhibitors based on BBI608 for cancer therapy” (Eur J Med Chem, 2020).
